15 compounds from ChEMBL document CHEMBL4177663, “Discovery and structure-activity relationship study of 1,3,6-trisubstituted 1,4-diazepane-7-ones as novel human kallikrein 7 inhibitors” (Bioorg Med Chem Lett, 2017) can be followed below.

Assay [1] addresses Trypsin (Homo sapiens, UniProt P07477+P07478+P35030). Briefly: Inhibition of human trypsin preincubated for 10 mins followed by Boc-Gln-Ala-Arg-MCA peptide substrate addition measured after 30 mins by fluorescence analysis. It counts as protein assay.
A short description of assay [2]: Inhibition of human chymotrypsin preincubated for 10 mins followed by Suc-Ala-Ala-Pro-Phe-MCA peptide substrate addition measured after 30 mins by fluorescence analysis.
Assay [3] has as its target Kallikrein-7 (Homo sapiens, UniProt P49862). Briefly: Inhibition of thermolysin activated recombinant human C-terminal 10-His tagged KLK7 preincubated for 10 mins followed by MOCAc-Arg-Pro-Lys-Pro-Val-Glu-Nva-Trp-Arg-Lys(Dnp)-NH2 peptide substrate addition measured after 30 mins by fluorescence analysis.
The target in assay [4] is T1, Kallikrein-5 (Homo sapiens, UniProt Q9Y337).
T1 sequence (Q9Y337 whole entry): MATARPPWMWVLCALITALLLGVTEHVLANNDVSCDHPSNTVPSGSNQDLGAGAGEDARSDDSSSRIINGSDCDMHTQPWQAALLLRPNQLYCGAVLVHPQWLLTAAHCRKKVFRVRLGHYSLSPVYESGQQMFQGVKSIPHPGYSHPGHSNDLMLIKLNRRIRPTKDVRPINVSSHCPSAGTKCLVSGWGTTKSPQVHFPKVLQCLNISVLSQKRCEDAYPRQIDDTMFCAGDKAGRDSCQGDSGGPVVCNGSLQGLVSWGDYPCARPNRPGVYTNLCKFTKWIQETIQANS
Briefly: Inhibition of recombinant human C-terminal 10-His tagged KLK5 preincubated for 10 mins followed by Boc-Val-Pro-Arg-MCA peptide substrate addition measured after 30 mins by fluorescence analysis.

Sequence of Kallikrein-7 (P49862 whole entry): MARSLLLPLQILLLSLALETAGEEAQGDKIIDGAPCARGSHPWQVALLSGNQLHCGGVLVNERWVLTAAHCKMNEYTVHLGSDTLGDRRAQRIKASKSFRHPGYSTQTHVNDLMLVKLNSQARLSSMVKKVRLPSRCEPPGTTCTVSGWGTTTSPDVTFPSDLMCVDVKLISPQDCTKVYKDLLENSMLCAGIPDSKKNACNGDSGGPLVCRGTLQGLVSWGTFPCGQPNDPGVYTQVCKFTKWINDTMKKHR

Regarding `COc1ccc(Cl)cc1C[C@@H]1CN/C(=N\N(C)C)CN(CC(=O)Nc2cccc(S(C)(=O)=O)c2)C1=O`, the 50% inhibitory concentration (IC50) (usually the concentration that inhibits the measured activity by half) in assay [1] was > 30 µM; in assay [2] it was 24 µM; in assay [3] it was 0.82 µM; in assay [4] it was > 30 µM. For the compound `COc1ccc(Cl)cc1C[C@@H]1CN/C(=N\Oc2cc(F)cc(F)c2)CN(CC(=O)Nc2ccc(O)c(C(=O)O)c2)C1=O`, in assay [3], the 50% inhibitory concentration (IC50) was found to be 5.8 µM.

`COc1ccc(Cl)cc1C[C@@H]1CN/C(=N\N(C)C)CN(CC(=O)Nc2cccc(C(=O)O)c2)C1=O.Cl`: the IC50 was > 30 µM in assay [1], 30 µM in assay [2], 1.9 µM in assay [3] and > 30 µM in assay [4]. For `COc1ccc(Cl)cc1C[C@@H]1CN/C(=N\N(C)C)CN(CC(=O)Nc2ccc(C(=O)O)cc2)C1=O`, in assay [3], the half-inhibitory concentration (IC50) came out at 30 µM. Turning to `COc1ccc(Cl)cc1C[C@@H]1CNC(=O)CN(CC(=O)Nc2ccc(O)c(C(=O)O)c2)C1=O`, in assay [3], the IC50 is > 30 µM.

With `COc1ccc(Cl)cc1C[C@@H]1CN/C(=N\N(C)C)CN(CC(=O)Nc2ccccc2C(=O)O)C1=O`, the IC50 in assay [3] was > 30 µM. With `CCO/N=C1/CN(CC(=O)Nc2cccc(C(=O)O)c2)C(=O)[C@H](Cc2cc(Cl)ccc2OC)CN1`, in assay [3], the IC50 amounted to 13 µM.

As to `CO/N=C1/CN(CC(=O)Nc2cccc(C(=O)O)c2)C(=O)[C@H](Cc2cc(Cl)ccc2OC)CN1`, in assay [3], the IC50 worked out at 14 µM.

In the case of `COc1ccc(Cl)cc1C[C@@H]1CN/C(=N\N(C)C)CN(CC(=O)Nc2ccccc2)C1=O`, the concentration for half-maximal inhibition (IC50) in assay [3] is 4.5 µM. Same read-out and setting: with `COc1ccc(Cl)cc1C[C@@H]1CN/C(=N\O)CN(CC(=O)Nc2cccc(C(=O)O)c2)C1=O` the figure was > 30 µM; with `COc1ccc(Cl)cc1C[C@@H]1CN/C(=N\N(C)C)CN(CC(=O)Nc2cccnc2)C1=O`, 9 µM. Regarding `COc1ccc(Cl)cc1C[C@@H]1CN/C(=N\Oc2c(F)cccc2F)CN(CC(=O)Nc2cccc(C(=O)O)c2)C1=O`, the IC50 in assay [3] amounted to 5.4 µM. For the compound `COc1ccc(Cl)cc1C[C@@H]1CN/C(=N\N(C)C)CN(CC(=O)Nc2ccccn2)C1=O`, the IC50 in assay [3] was 16 µM. Turning to `COc1ccc(Cl)cc1C[C@@H]1CN/C(=N\OCC(C)C)CN(CC(=O)Nc2cccc(C(=O)O)c2)C1=O`, in assay [3], the 50% inhibitory concentration (IC50) is > 30 µM. For the compound `COc1ccc(Cl)cc1C[C@H]1CN/C(=N\Oc2cc(F)cc(F)c2)CN(CC(=O)Nc2ccc(O)c(C(=O)O)c2)C1=O`, the IC50 in assay [3] was > 30 µM.
